Measurements from ChEMBL document CHEMBL1143897, “Aryl-indolyl maleimides as inhibitors of CaMKIIdelta. Part 2: SAR of the amine tether” (Bioorg Med Chem Lett, 2008).

The compounds below were run against Calcium/calmodulin-dependent protein kinase type II subunit delta (Homo sapiens, UniProt Q13557) (assay: Inhibition of CaMK2delta).
Sequence of Calcium/calmodulin-dependent protein kinase type II subunit delta (Q13557 whole entry): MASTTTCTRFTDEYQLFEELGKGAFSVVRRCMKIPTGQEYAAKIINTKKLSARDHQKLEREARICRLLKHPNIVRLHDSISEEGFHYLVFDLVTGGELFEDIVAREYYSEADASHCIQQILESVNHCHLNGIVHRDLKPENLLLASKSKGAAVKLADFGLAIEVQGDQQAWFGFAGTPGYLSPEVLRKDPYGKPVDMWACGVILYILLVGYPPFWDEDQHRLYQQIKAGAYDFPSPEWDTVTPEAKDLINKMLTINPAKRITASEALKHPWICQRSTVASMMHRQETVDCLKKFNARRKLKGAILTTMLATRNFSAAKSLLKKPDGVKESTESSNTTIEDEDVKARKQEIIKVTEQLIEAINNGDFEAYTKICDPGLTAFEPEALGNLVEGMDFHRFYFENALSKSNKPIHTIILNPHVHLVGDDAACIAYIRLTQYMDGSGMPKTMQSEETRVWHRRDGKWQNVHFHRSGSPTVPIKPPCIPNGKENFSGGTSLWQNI

SMILES | IC50
Cn1cc(C2=C(c3c[nH]c4ccc(Br)cc34)C(=O)NC2=O)c2ccccc21 | 0.87 µM
Cn1cc(C2=C(c3cn(C4CCN(Cc5ccccc5)CC4)c4ccccc34)C(=O)NC2=O)c2ccccc21 | 1.87 µM
NCCCn1cc(C2=C(c3ccccc3)C(=O)NC2=O)c2ccccc21 | 1.35 µM
CN1CCCC1CCn1cc(C2=C(c3c[nH]c4ccccc34)C(=O)NC2=O)c2ccccc21 (stereo not drawn) | 1.89 µM
Cn1cc(C2=C(c3cn(C4CCCNC4)c4ccccc34)C(=O)NC2=O)c2ccccc21 (stereo not drawn) | 0.3 µM
O=C1NC(=O)C(c2cn(CCC3CCCCN3)c3ccccc23)=C1c1c[nH]c2ccccc12 (stereo not drawn) | 1.45 µM
NCC(O)Cn1cc(C2=C(c3ccccc3)C(=O)NC2=O)c2ccccc21 (stereo not drawn) | 0.45 µM
NCCCn1cc(C2=C(c3c[nH]c4ccc(Br)cc34)C(=O)NC2=O)c2ccccc21 | 0.034 µM
Cn1cc(C2=C(c3cn(CCCN)c4ccccc34)C(=O)NC2=O)c2ccccc21 | 0.31 µM
O=C1NC(=O)C(c2cn(CCCN3CCNCC3)c3ccccc23)=C1c1c[nH]c2ccccc12 | 2.02 µM
O=C1NC(=O)C(c2c[nH]c3ccccc23)=C1c1c[nH]c2ccccc12 [RO-316233] | 1.19 µM
O=C1NC(=O)C(c2c[nH]c3ccccc23)=C1c1ccccc1 | > 20 µM
CC(C)(C)OC(=O)NCCCn1cc(C2=C(c3c[nH]c4ccc(Br)cc34)C(=O)NC2=O)c2ccccc21 | 7.54 µM
CC(C)(C)OC(=O)NCCCn1cc(C2=C(c3c[nH]c4ccccc34)C(=O)NC2=O)c2ccccc21 | 3.81 µM
Cn1cc(C2=C(c3ccccc3)C(=O)NC2=O)c2ccccc21 | > 20 µM
NCCCn1cc(C2=C(c3cccc(Br)c3)C(=O)NC2=O)c2ccccc21 | 0.18 µM
O=C1NC(=O)C(c2c[nH]c3ccccc23)=C1c1cccc(Br)c1 | 3.53 µM
CC(C)(C)OC(=O)NCCCn1cc(C2=C(c3ccccc3)C(=O)NC2=O)c2ccccc21 | > 20 µM
